Patent US5216003A, “Diacid-containing benzimidazole compounds for treatment of neurotoxic injury” (G. D. Searle & Co., priority 1992, dated 1993)

Legend:
[1] = tested on: NMDA receptor (rat brain hippocampal tissue); settings: evaluation of CPP binding to rat brain hippocampal tissue; Murphy et al 1987; cited from earlier work
[2] = tested on: pyramidal cells in CA1 of the hippocampus; test: Forebrain Ischemia Assay (bilateral carotid occlusion, neuron count); type: in vivo, Mongolian gerbil; settings: for # of Neurons/Field: 7 days
Method: This assay was used to determine the extent of protection afforded by compound of the invention to neural brain cells subjected to ischemic conditions. Male Mongolian gerbils, 50-70 gm, were used as subjects. Compound Example #1 was injected i.p. 30 minutes prior to carotid occlusion into 6 gerbils […]. In preparation for surgical procedures, the animals were lightly anesthetized with methoxyflurane and placed upside down on a heated pad with their snout within a nosecone. A 70:30 mixture of nitrous oxide and oxygen containing 0.5% halothane was circulated through the nosecone to provide continuous anesthesia throughout the surgical procedure. A midline incision was made in the neck and the carotid arteries were exposed. A length of suture thread was placed under each carotid. The thread was then tightened around each carotid and pressure applied to the thread to insure flow was occluded. Flow was occluded for 4-5 minutes and then the thread was removed. The carotids were visually inspected to confirm that reflow had occurred. The wound was then closed with autoclips and the gerbils allowed to recover. Following surgery, the gerbils were kept alive for 7 days. They were anesthetized with 100 mg/kg sodium pentobarbital and perfused transcardially with saline (with heparin) followed by buffered formalin. The brain was removed, trimmed and prepared for histological processing. Sections (10 microns) were stained with thionin. At 7 days following this type of transient global forebrain ischemia, damaged neurons in the vulnerable CAl region of the hippocampus have degenerated and been cleared away by glia. Quantification of the resulting lesion is made by counting the pyramidal cell somata in a 0.5 mm length of CAl of the hippocampus on the section corresponding to P 1.7 mm in the gerbil brain atlas. […] The effects of compound of Ex. #1 were assessed by comparing the number of neural cells found in the hippocampus of subjects treated with Ex. #1 compound with the cell number found in the appropriate control groups. […]

[3] = tested on: tonic hindlimb extensor seizures; test: Anticonvulsant Assay (electroconvulsive shock); type: in vivo, male CD-1 mice; settings: 30 min prior to ECS; for Protected from ECS (% of Mice): 56 mg/kg s.c., n = 10, vehicle 5 (n = 20)
[4] = tested on: motor function; test: inverted screen test for motor impairment; type: in vivo, male CD-1 mice; settings: for Exhibiting Motor Impairments (% of Mice): 56 mg/kg s.c., n = 10, vehicle 10 (n = 20)
Method: This assay was used to determine the extent of in vivo protection against convulsions afforded by compound of the invention to mice subjected to artifically-induced convulsive conditions. Naive male CD-l mice (20-30 grams body weight) from Charles River Laboratories, Portage Mich. served as subjects. The mice had ad libitum access to food and water prior to testing and were maintained on a 12 hour light/12 hour dark schedule with testing during the light portion of the cycle. The mice were tested for motor impairment by use of the inverted screen test approximately 5 minutes prior to anticonvulsant testing. The inverted screen apparatus was similar to that described by Coughenour et al [Pharmacol. Biochem. Behav., 6, 351-353 (1977)]. Mice were placed on 13×13 cm pieces of #4 wire mesh screen which were mounted horizontally. The screens were then slowly inverted. […] Tonic hindlimb extensor seizures were then produced by application of electroconvulsive shock through concave electrodes to the eyeballs. Both the eyeballs and the electrodes were moistened with 0.9% saline to improve conductivity. The ECS stimulus was generated by use of a Grass model S48D stimulator with a Grass model CCUlA constant current unit in series with the output. Stimulation consisted of 10 msec pulses of a 60 pps single phase square wave for a duration of 200 msec. The current was held constant at 15 mA. Compound of Example #1 was suspended in a vehicle of 0.9% saline with a few drops of PG-Tween added. PG-Tween is a 1:1 mixture of propylene glycol and Tween 80. The Example #1 compound or vehicle was administered s.c. in a volume of 10 ml/kg body weight 30 minutes prior to application of the ECS stimulus. […] There were 10 mice in each treatment group.

[5] = target: Kainate (KA) receptor; test: [3H]kainate (KA) binding assay on synaptic plasma membranes; set-up: species or system rat; settings: 0.5 nM [3H]kainate, pH 7.4, 0-4 °C, 60 min
Method: (§1) Synaptic plasma membranes (SPM) were prepared as previously described [Monahan, J. B. and Michel, J., "Identification and Characterization of an N-methyl-D-aspartate-specific L[^3 H]glutamate Recognition Site in Synaptic Plasma Membranes", J. Neurochem., 48, 1699-1708 (1987)]. The SPM were stored at a concentration of 10-15 mg/ml in 0.32M sucrose, 0.5 mM EDTA, 1 mM MgSO4, 5 mM Tris/SO4, pH 7.4, under liquid nitrogen. The identity and purity of the subcellular fractions were confirmed by both electron microscopy and marker enzymes. Protein concentrations were determined by using a modification of the method of Lowry [Ohnishi, S. T. and Barr, J. K., "A Simplified Method of Quantitating Proteins Using the Biuret and Phenol Reagents", Anal. Biochem., 86, 193-197 (1978)]. The SPM were treated identically for the [^3 H]AMPA (QUIS), [^3 H]kainate and sodium-dependent L-[^3 H]-glumatate binding assays. […] Beckman MP scintillation cocktail containing 7 mL/l acetic acid was then added and the samples counted on a Beckman LS 5800 or 3801 liquid scintillation counter with automatic corrections for quenching and counting efficiency. […] Radioligand binding to the synaptic plasma membranes was analyzed using Scatchard and Hill transformations and the Ki values of the compounds determined using logit-log transformations. […]

[6] = target: NMDA receptor (N-methyl-D-aspartate-specific L-[3H]glutamate recognition site in synaptic plasma membranes); test: NMDA-Selective Glutamate Binding Assay, L-[3H]glutamate; set-up: species or system rat; settings: 12.5 nM L-[3H]glutamate, pH 7.4, 0-4 °C, 10 min; read-out: [3H]GLU Ki
Method: as §1

[7] = target: [3H]MK-801 binding in rat SPM; test: [3H]MK-801 Binding assay; settings: 5.0 nM [3H]MK-801, 10.0 nM L-glutamate, pH 7.4, 25 °C, 30 min
Method: Modulation of [^3 H]MK-801 binding was performed using Triton X-100 (0.04% v/v) treated rat SPM that had been extensively washed. Assay incubations were at 25° C. for 30 min. and contained 5.0 nM [^3 H]MK-801, L-glutamate (10.0 nM), and various concentrations of the tested compound in 50 mM Tris/acetate, pH 7.4. The assay was stopped by rapid filtration, using Brandel MB-48 Harvester, through Whatman GF/B filters treated with 0.05% polyethylenimine and the samples washed four times with 2.0 mL cold buffer. The radioactivity associated with the filter was determined by liquid scintillation spectrometry. Nonspecific binding was defined using 60 μM MK-801. IC50 were determined using a logit-log transformation of the binding data.

| SMILES | NMDA antagonism [1] | # of Neurons/Field ([2]; 300 mg/kg i.p. 30 min prior to carotid occlusion, control 19.8, p < 0.01) | # of Neurons/Field ([2]; 500 mg/kg i.p. 30 min prior to carotid occlusion, control 39.8, p < 0.005) | cell loss ([2]; i.p., 300 and 500 mg/kg, vs control, Mann-Whitney U test) | Protected from ECS (% of Mice) ([3]; Test A) | Protected from ECS (% of Mice) ([3]; Test B) | protection against tonic hindlimb extensor seizures ([3]; s.c.) | Exhibiting Motor Impairments (% of Mice) ([4]; Test A) | Exhibiting Motor Impairments (% of Mice) ([4]; Test B) | motor function ([4]; s.c., similar dose range as anticonvulsant effect) | KA Ki [5] [µM] | Ki [6] [µM] | Ki [7] [µM] |
| --- | --- | --- | --- | --- | --- | --- | --- | --- | --- | --- | --- | --- | --- |
| O=C(O)C1CN(CCCP(=O)(O)O)CCN1 (stereo not shown) [CPP, 3-(2-carboxypiperazin-4-yl)propyl-1-phosphonic acid] | potent and selective NMDA antagonist | – | – | – | – | – | – | – | – | – | – | – | – |
| O=C(O)c1nc2cccc(CP(=O)(O)O)c2[nH]1 [Example 1, 2-carboxy-4-phosphonomethylbenzimidazole] | – | 44.3 # of Neurons/Field | 137.4 # of Neurons/Field | significantly reduced | 50 % of Mice | 20 % of Mice | protected against tonic hindlimb extensor seizures in a dose-dependent fashion | 10 % of Mice | 0 % of Mice | impaired motor function in a similar dose range | > 100 | 1.6 | 3.9 |
